From patent US5567692A, “9-[(substituted glycyl) amido)]-6-demethyl-6-deoxytetracyclines” (priority 1995, dated 1996)
Where a name gives a salt, the structure may show the parent alone.

Columns and labels:
E. coli UBMS 88-1 Tet B = assay: microbe, parasite or virus in culture; type: cell-based; details: E. coli UBMS 88-1 Tet B
E. coli J3272 Tet C = assay: microbe, parasite or virus in culture; type: cell-based; details: dihydrochloride
[1] = system: E. coli UBMS 89-2 Tet sens.; assay: MIC, agar dilution; type: cell-based; details: E. coli UBMS 89-2 Tet sens.
E. coli J2175 = assay: MIC, agar dilution; type: cell-based
E. coli J3272 Tet D = assay: microbe, parasite or virus in culture; type: cell-based; details: dihydrochloride
[2] = system: X. maltophilia NEMC 87210; assay: MIC, agar dilution; type: cell-based; details: X. maltophilia NEMC 87210; dihydrochloride
[3] = system: Ps. aeruginosa ATCC 27853; assay: MIC, agar dilution; type: cell-based; details: Ps. aeruginosa ATCC 27853; dihydrochloride
S. aureus UBMS 88-4 = assay: MIC, agar dilution; type: cell-based; details: Staphylococcus aureus, UBMS884, 18 h
[4] = system: S. aureus UBMS 88-5 Tet M; assay: microbe, parasite or virus in culture; type: cell-based; details: Staphylococcus aureus, UBMS885TETM, 18 h
[5] = system: S. aureus UBMS 90-1 Tet M; assay: microbe, parasite or virus in culture; type: cell-based; details: S. aureus UBMS 90-1 Tet M; dihydrochloride
S. aureus IVES 2943 = assay: MIC, agar dilution; type: cell-based; details: S. aureus IVES 2943; dihydrochloride
S. aureus ROSE (MP) = assay: MIC, agar dilution; type: cell-based; details: Staphylococcus aureus, 18 h, read-out: MIC
S. aureus IVES 1983 = assay: MIC, agar dilution; type: cell-based; details: S. aureus IVES 1983; dihydrochloride
S. aureus ATCC 29213 = assay: MIC, agar dilution; type: cell-based; details: S. aureus ATCC 29213; dihydrochloride
[6] = system: Staphylococcus aureus strain Smith (tetracycline sensitive); assay: Acute lethal infection in mice, S. aureus Smith; type: in vivo; details: mice, S. aureus Smith (Sens), 7 day survival, dihydrochloride, 10080 min
[7] = system: Staphylococcus aureus, (methicillin-resistant); assay: MIC range, recent clinical and veterinary isolates; type: cell-based; details: 18 h, [15] isolates
[8] = system: Staphylococcus aureus, (methicillin-susceptible); assay: MIC range, recent clinical and veterinary isolates; type: cell-based; details: Staphylococcus aureus, 18 h, read-out: MIC Range
[9] = system: Staphylococcus Coagulase-negative, (methicillin-resistant); assay: MIC range, recent clinical and veterinary isolates; type: cell-based; details: 18 h, [16] isolates
[10] = system: Staphylococcus Coagulase-negative, (methicillin-susceptible); assay: MIC range, recent clinical and veterinary isolates; type: cell-based; details: 18 h, [14] isolates
Enterococcus faecalis = assay: MIC range, recent clinical and veterinary isolates; type: cell-based; details: 18 h, read-out: MIC Range
[11] = system: Enterococcus spp, (Vancomycin-resistant); assay: MIC range, recent clinical and veterinary isolates; type: cell-based; details: 18 h, [8] isolates
Streptococcus agalactiae = assay: MIC range, recent clinical and veterinary isolates; type: cell-based; details: 18 h, read-out: MIC Range
Streptococcus pneumoniae = assay: MIC range, recent clinical and veterinary isolates; type: cell-based; details: 18 h, [10] isolates, read-out: MIC Range
Listeria monocytogenes = assay: MIC range, recent clinical and veterinary isolates; type: cell-based; details: 18 h, [8] isolates
Escherichia coli = assay: MIC range, recent clinical and veterinary isolates; type: cell-based; details: 18 h, read-out: MIC Range
Citrobacter diversus = assay: MIC range, recent clinical and veterinary isolates; type: cell-based; details: Citrobacter koseri, 18 h; Citrobacter diversus, [10] isolates; read-out: MIC Range
Salmonella spp. = assay: MIC range, recent clinical and veterinary isolates; type: cell-based; details: 18 h, [11] isolates
Enterobacter aerogenes = assay: MIC range, recent clinical and veterinary isolates; type: cell-based; details: Klebsiella aerogenes, 18 h; Enterobacter aerogenes, [10] isolates; read-out: MIC Range
Morganella morganii = assay: MIC range, recent clinical and veterinary isolates; type: cell-based; details: 18 h, [16] isolates
Xanthamonas maltophilia = assay: MIC range, recent clinical and veterinary isolates; type: cell-based; details: 18 h, read-out: MIC Range
Moraxella catarrhalis = assay: MIC range, recent clinical and veterinary isolates; type: cell-based; details: 18 h, [18] isolates, read-out: MIC Range
Neisseria gonorrhoeae = assay: MIC range, recent clinical and veterinary isolates; type: cell-based; details: 18 h, [14] isolates
[12] = system: Pasturella multocida (Veterinary); assay: MIC range, recent clinical and veterinary isolates; type: cell-based; details: 18 h, [17] isolates
[13] = system: Bordetella bronchiseptica (Veterinary); assay: MIC range, recent clinical and veterinary isolates; type: cell-based; details: 18 h; Bordetella bronchiseptica (Veterinary), [10] isolates; read-out: MIC Range
[14] = system: Bacteroides fragilis group; assay: MIC range, recent clinical and veterinary isolates; type: cell-based; details: Bacteroides fragilis, 18 h, read-out: MIC Range
Bacteroides spp. = assay: MIC range, recent clinical and veterinary isolates; type: cell-based; details: Bacteroides, 18 h, read-out: MIC Range
Clostridium difficile = assay: MIC range, recent clinical and veterinary isolates; type: cell-based; details: Clostridioides difficile, 18 h; Clostridium difficile, [12] isolates; read-out: MIC Range
Clostridium perfringens = assay: microbe, parasite or virus in culture; type: cell-based; details: 18 h, read-out: MIC Range
the ribosome = assay: Reversibility of binding: bacterial growth after washing of the organism; type: cell-based; details: bacterial growth resumes when the compound is removed by washing
From the text: Therefore, the ability of 9-[(N,N-dimethylglycyl)amido]-6-demethyl-6-deoxytetracycline to inhibit bacterial growth appears to be a direct consequence of its ability to inhibit protein synthesis at the ribosome level.

[15] = system: Escherichia coli UBMS 90-4 (Tet M); assay: Acute lethal infection in mice, E. coli UBMS 90-4; details: in Mus musculus, iv, 168 h

For `CN(C)CC(=O)Nc1ccc2c(c1O)C(=O)C1=C(O)[C@]3(O)C(=O)C(C(N)=O)=C(O)[C@@H](N(C)C)C3CC1C2` (stereo partly drawn) [CC, [4S-(4alpha,12aalpha)]-4-(Dimethylamino)-9-[[(dimethylamino)acetyl]amino]-1,4,4a,5,5a,6,11,12a-octahydro-3,10,12,12a-tetrahydroxy-1,11-dioxo-2-naphthacenecarboxamide dihydrochloride], the MIC (E. coli UBMS 88-1 Tet B) was 0.25 µg/mL, the MIC (E. coli J3272 Tet C) was 0.25 µg/mL and the MIC [1] was 0.25 µg/mL. It also gave an MIC (E. coli J2175) of 0.25 µg/mL, an MIC (E. coli J3272 Tet D) of 0.03 µg/mL and an MIC [2] of 1 µg/mL. It also gave an MIC [3] of 4 µg/mL, an MIC (S. aureus UBMS 88-4) of 0.03 µg/mL and an MIC [4] of 0.03 µg/mL. For the same compound, the MIC [5] was 0.06 µg/mL, the MIC (S. aureus IVES 2943) was 0.5 µg/mL and the MIC (S. aureus ROSE (MP)) was 1 µg/mL. It also gave an MIC (S. aureus IVES 1983) of 0.5 µg/mL, an MIC (S. aureus ATCC 29213) of less than 0.015 µg/mL and an ED50 ([6]; Intraveneous) of 0.46 mg/kg. For the same compound, the ED50 ([6]; Oral) was greater than 8 mg/kg, the MIC [7] was 0.12 to 4 µg/mL and the MIC [8] was 0.06 to 0.25 µg/mL. It also gave an MIC [9] of 0.06 to 16 µg/mL, an MIC [10] of 0.06 to 4 µg/mL and an MIC (Enterococcus faecalis) of 0.03 to 0.25 µg/mL. The MIC [11] was 0.03 to 0.12 µg/mL, the MIC (Streptococcus agalactiae) was 0.12 to 0.25 µg/mL and the MIC (Streptococcus pneumoniae) was 0.03 to 0.5 µg/mL. The MIC (Listeria monocytogenes) was 0.06 to 0.12 µg/mL, the MIC (Escherichia coli) was 0.25 to 4 µg/mL and the MIC (Citrobacter diversus) was 0.25 to 1 µg/mL. It also gave an MIC (Salmonella spp.) of 0.25 to 0.5 µg/mL, an MIC (Enterobacter aerogenes) of 0.25 to 1 µg/mL and an MIC (Morganella morganii) of 0.5 to 1 µg/mL. The MIC (Xanthamonas maltophilia) was 1 to 8 µg/mL, the MIC (Moraxella catarrhalis) was 0.06 to 0.12 µg/mL and the MIC (Neisseria gonorrhoeae) was 0.5 to 1 µg/mL. It also gave an MIC [12] of 0.03 to 0.25 µg/mL, an MIC [13] of 0.06 to 0.12 µg/mL and an MIC [14] of 0.12 to 2 µg/mL. It also gave an MIC (Bacteroides spp.) of 0.12 to 0.5 µg/mL, an MIC (Clostridium difficile) of 0.06 to 0.12 µg/mL and an MIC (Clostridium perfringens) of 0.03 to 2 µg/mL. The “binding to its target (the ribosome), reversibility” value (the ribosome) was “binds reversibly” and the ED50 [15] was 1.6 mg/kg.
